Consider two compounds from patent US8703815B2, “Small molecules that covalently modify transthyretin” (The Scripps Research Institute, priority 2009, dated 2014).

Structures are written as SMILES. “And” between values parts separate entries of the source, which are not always exact repeats. Identical values can stand only once. Like-named read-outs stand apart in the source and are kept apart here.

The target in data set [1] is T1, WT-TTR (Homo sapiens, UniProt P02766).
T1 construct: composed of 127-residue β-sheet-rich subunits; made in house; host or cells: E. coli
The data set is described as follows: Kinetics of the A2-TTR conjugation reaction (fluorescence). The format is binding. The conditions noted are these: A2 6 μM. The protocol:
Because the one-chain, one-binding-site TTR tag being created is envisioned to be useful for doing pulse-chase studies in the secretory pathway of eukaryotic cells, the kinetics of WT-TTR modification by A2 in concentrated cell lysate was investigated. […] We added WT-TTR at a final concentration of 2 μM (tetramer) to the HeLa cell lysate (2 μg/μL total protein concentration) to which A2 (6 μM) was added. At 37° C., the conjugate formed with a t50 of 18 minutes, within experimental error of the t50 (19 minutes) of TTR (2 μM) conjugate formation with A2 (6 μM) in phosphate buffer (pH 7).
The covalent TTR modifier A2 (1 μL of 0.6 mM solution in DMSO, final concentration: 6 μM) was added to 90 μL of HeLa cell lysate (final protein concentration: 2 μg/μL) and 10 μL of WT-TTR (20 μM in pH 7.0 phosphate buffer, final concentration: 2 μM). The time-dependent fluorescence change of the conjugate derived from A2 was monitored utilizing a microplate spectrophotometer reader (Gemini SpectraMax®, Molecular Devices, Sunnyvale, Calif.) for 3 hours at 37° C. The fluorescence (λex=328 nm and λem=430 nm) was measured from the bottom of the plate without shaking.

Data set [2] addresses T1, WT-TTR. The data set is described as follows: Selectivity of A2 TTR conjugation in HeLa cell lysate (RP-HPLC, LC-MS). The format is binding. As to conditions: WT-TTR 5 μM, A2 15 μM, maximum of 50%. As for the experimental part: The ability of A2 to form a chemoselective amide bond with the K15 residue of TTR in cell lysate was assessed by RP-HPLC and LC-MS analysis. […] Immunoisolation of TTR affords the expected mass resulting from conjugate formation (14,185 m/z [M+H] for benzoylation by A2).

The nature of data set [3]: Quantum yield measurement in buffer. The format is physicochemical. The protocol:
(§1) The covalent TTR modifier A1 or A2 or the non-covalent TTR ligand B2 (15 μL of a 1.44 mM solution in DMSO, final concentration: 7.2 μM) was added to 3 mL of a solution of WT-TTR homotetramer (0.2 mg/mL, 3.6 μM) in 10 mM phosphate, 100 mM KCl and 1 mM EDTA (pH 7.0 phosphate buffer). The samples were vortexed, and incubated for 18 hours at 25° C. Quantum yields were measured by following the instructions at the web site: jobinyvon.com/usadivisions/Fluorescence/applications/quantumyieldstrad.pdf. Quinine bisulfate in 0.5 M H2SO4 was used as a reference for comparison (Φf=0.546). [Crosby et al., J. Phys. Chem. 1971, 75, 991-1024.]

For data set [4], the target named is T1, WT-TTR. The data set is described as follows: Quantum yield measurement with WT-TTR. As to conditions: compound 7.2 μM. The class given is physicochemical. As for the experimental part: as §1
Data set [5] relates to WT-TTR in transfected HeLa cells. The experiment in a line: Confocal fluorescence imaging of WT-TTR in transfected HeLa cells. The class given is cell-based, human. The conditions noted are these: A2 10 μM, 1 hour. The protocol: Secreted WT-TTR was produced in HeLa cells by transient transfection and the cells were treated with A2 for 1 hour prior to imaging using confocal fluorescence microscopy. The expression of WT-TTR in the HeLa cells after transient transfection was confirmed using western blot analysis, as was the absence of TTR in the empty vector control. […] TTR conjugate fluorescence co-localized with calnexin indirect immunofluorescence, a marker for the endoplasmic reticulum (ER), confirming that WT-TTR within the secretory pathway is being observed. TTR conjugate fluorescence is also expected in the Golgi and in secretory vesicles, explaining why TTR conjugate fluorescence is observed in organelles in addition to the ER.
HeLa cells were plated on cover slips in DMEM containing 10% FBS at 37° C. under 5% CO2 the day before they were transfected with pcDNA3.1(+)-empty vector or pcDNA3.1(+)-WT-TTR using […] (Roche) according to the manufacturer's instructions. After 48 hours, the cells were washed with PBS twice before adding fresh DMEM (without FBS) with A2 (final concentration: 10 μM), and the cells were incubated at 37° C. for 1 hour. After two washes with PBS, the cells were fixed at 25° C. for 15 minutes with 3.7% (w/v) paraformaldehyde in PBS. […]

Data set [6] has as its system Huh-7 human liver (hepatoma) cells. The data set is described as follows: Labeling of endogenous TTR in Huh-7 cells. The class given is cell-based. As to conditions: A2 10 μM, 30 minutes. The text has this: (§2) The confocal fluorescence observations are consistent with substantial evidence that the liver secretes the vast majority, if not all, of the TTR into the human bloodstream [Felding et al., Biochimica et Biophysica Acta 1982, 716, 446-9]. That TTR could be visualized in the secretory pathway addresses the sensitivity of A2-derived TTR fluorescent conjugate-based detection [Sekijima et al., Cell 2005, 121, 73-85].
(§3) Huh-7 cells or Gaucher's patient-derived fibroblasts (Coriell Cell Repositories, GM08760) were maintained in DMEM containing 10% FBS at 37° C. under 5% CO2. The cells were plated the day before compound treatment and imaging. Cells were washed twice with PBS and then treated with A2 (final concentration: 10 μM) for 30 minutes at 37° C. in a CO2 incubator. After two washes, cells were fixed at 25° C. for 15 minutes with 3.7% paraformaldehyde (w/v) in PBS and microscopic images were acquired as described above.

A further data set concerns human fibroblasts. The experiment in a line: A2 treatment of human fibroblasts (no TTR). The class given is cell-based. The conditions noted are these: A2 10 μM, 30 minutes.
Description: as §2, §3

In data set [7] the target is T1, WT-TTR. The experiment in a line: Acid-mediated WT-TTR fibril formation assay (turbidity at 400 nm). The class given is biochemical. The conditions noted are these: for IC50: % fibril formation after 72 hours, read-out: IC50 (apparent), inhibition of WT-TTR amyloidogenesis. As for the experimental part:
The mixtures were vortexed and incubated (maintained) for 18 hours at 25° C.

Turning to `Cc1cc(/C=C/c2cc(C(=O)Sc3ccc(F)cc3)cc(N(C)C)c2)cc(C)c1O` [Compound A2, (E)-S-4-fluorophenyl 3-(dimethylamino)-5-(4-hydroxy-3,5-dimethylstyryl)-benzothioate], the “t50 of conjugate formation in phosphate buffer (pH 7)” value at WT-TTR [1] (TTR 2 μM) is 19 minutes. In addition, the “t50 of conjugate formation in HeLa cell lysate” value at WT-TTR [1] (WT-TTR 2 μM, lysate 2 μg/μL, 37° C.) is 18 min and 20 min. Besides, the “% of TTR subunits modified in HeLa cell lysate” value at WT-TTR [2] worked out at 49%. In data set [3], the “fluorescence quantum yield in buffer” value is listed as 0.00. For the same compound, the “fluorescence quantum yield in complex or conjugate with TTR” value on WT-TTR [4] came out at 0.27. The “conjugate fluorescence in HeLa cells expressing WT-TTR” value in data set [5] is reported as “strong conjugate fluorescence”. For the same compound, the “fluorescence in Huh-7 cells” value in data set [6] is listed as “strong fluorescence”. The “fluorescence in human fibroblasts” value with human fibroblasts was “no significant fluorescence”.

For orientation: IC50 means the point on the concentration scale where inhibition reaches its midpoint. Consider `Cc1cc(/C=C/c2cccc(C(=O)Sc3ccccc3)c2)cc(C)c1O` [Compound 2, (E)-S-phenyl 3-(4-hydroxy-3,5-dimethylstyryl)benzothioate], for which the IC50 at WT-TTR [7] (WT-TTR 3.6 μM) is 1960 to 2260 nM; on WT-TTR [7] (WT-TTR […]) it was 2000 nM. In addition, the “% Fibril Formation 7.2 μM (WT-TTR)” value at WT-TTR [7] (WT-TTR […], compound 7.2 μM, pH 4.4, 72 hours, 37° C.) came out at 2%. Also, at WT-TTR [7] (WT-TTR […], compound […], pH 4.4, 72 hours, 37° C.), the “% Fibril Formation […] (WT-TTR)” value amounted to 16%.
